According to patent US20170314205A1, “Microorganism Control System and Method of Using the Same” (Ecolab USA Inc., priority 2014, published 2017):

Experiment: Effect of acid addition on pH and available chlorine of urea-stabilized halogen-containing bactericide
Type: physicochemical
Details: for Solution pH / Available chlorine: final 30 ml; for Available chlorine: blank 2550
Protocol: Then, 5 beakers were provided and separately added with 1 ml of the prepared urea-stabilized halogen-containing bactericide. After that, 29 ml of water was added to the first beaker for dilution (blank control), while the other 4 beakers were separately added with 20% sulfuric acid (0.5 ml or 1.0 ml) or 20% citric acid (1.0 ml or 2.0 ml), and added with water to reach a final volume of 30 ml. Finally, pH values and available chlorine contents (ppm) of solutions in the 5 beakers were measured.
Further, 10% aminosulfonic acid (which was used to replace sulfuric acid or citric acid, which dosage was 1.1 ml or 1.24 ml) was used to repeat the above experiments. […] In addition, after aminosulfonic acid was added, pH values and available chlorine contents (ppm) in solutions were measured, and after standing for 40 min, 120 min, and 240 min, available chlorine contents (ppm) of solutions were measured again. […]

[1] = acid volume 1.0 ml to 1 ml urea-stabilized bactericide (12.5% hypochlorite)
[2] = acid volume 2.0 ml to 1 ml urea-stabilized bactericide (12.5% hypochlorite)
[3] = acid volume 0.5 ml to 1 ml urea-stabilized bactericide (12.5% hypochlorite)

Row | Compound | Solution pH [1] | Available chlorine [1] | Solution pH [2] | Available chlorine [2] | Solution pH [3] | Available chlorine [3] | Solution pH after mixing (10% acid 1.1 ml to 1 ml urea-stabilized bactericide (8.5% hypochlorite)) | Available chlorine after mixing (10% acid 1.1 ml, 0 min) | Available chlorine after mixing (10% acid 1.1 ml, 40 min) | Available chlorine after mixing (10% acid 1.1 ml, 120 min) | Available chlorine after mixing (10% acid 1.1 ml, 240 min) | Solution pH after mixing (10% acid 1.24 ml to 1 ml urea-stabilized bactericide (8.5% hypochlorite)) | Available chlorine after mixing (10% acid 1.24 ml, 0 min) | Available chlorine after mixing (10% acid 1.24 ml, 40 min) | Available chlorine after mixing (10% acid 1.24 ml, 120 min) | Available chlorine after mixing (10% acid 1.24 ml, 240 min) | Time for which available chlorine content of solution is maintained (urea-stabilized bactericide with pH regulated by aminosulfonic acid)
1 | O=C(O)CC(O)(CC(=O)O)C(=O)O [20% citric acid, citric acid, reference compound] | 7.75 | 1250 ppm | 3.65 | 725 ppm |  |  |  |  |  |  |  |  |  |  |  |  | 
2 | O=S(=O)(O)O [20% sulfuric acid, sulfuric acid, reference compound] | 2.15 | 455 ppm |  |  | 7.35 | 750 ppm |  |  |  |  |  |  |  |  |  |  | 
3 | NS(=O)(=O)O [Aminosulfonic acid, aminosulfonic acid] |  |  |  |  |  |  | 8.46 | 1275 ppm | 1275 ppm | 1325 ppm | 1400 ppm | 5.96 | 1300 ppm | 1325 ppm | 1475 ppm | 1250 ppm | at least 240 min
